Results on six molecules are retold here after patent US20230391781A1, “MALT1 MODULATORS AND USES THEREOF” (Rheos Medicines, Inc., priority 2020, published 2023).

Converted amounts (≈) assume the structure as drawn. A value given as a limit tells only on which side of the number the result lay.

One data set concerns the target full length MALT1 (Homo sapiens (Human), UniProt Q9UDY8). Description: MALT1 Biochemical Assay. The settings on record: 15 nM enzyme, 30 μM peptide substrate Ac-Leu-Arg-Ser-Arg-Rh110-dPro, 30 min pre-incubation, 60 min reaction; mean value if tested more than once. An outline of the steps: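 Full-length human MALT1 was pre-incubated with compound for 30 min, then cleaved a fluorogenic peptide for 60 min in 50 mM Hepes pH 7.5 with 0.8 M sodium citrate and 1 mM DTT. The reaction was quenched with 10 mM iodoacetate and fluorescence was read at 485/520 nm. IC50 came from four-parameter logistic fits of percent inhibition.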

Data set [1] has as its system IL-2 in Jurkat (ATCC, clone E6.1) cells stimulated with anti-CD3/28/2. Description: Jurkat IL-2 Assay. Format: cell-based. The settings on record: Homo sapiens; IL-2 inhibition, Jurkat cells, 30 min compound then anti-CD3/28/2 stimulation for 24 hours; mean value if tested more than once; read-out: IC50. An outline of the steps:
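Jurkat E6.1 T cells in RPMI/10% FBS (below passage 25) were preincubated with a compound dose-response for 30 min, then stimulated with soluble anti-CD3/28/2 for 24 h. IL-2 in the supernatant was measured by MSD immunoassay and viability by CellTiter-Glo luminescence. IC50 came from a 4-parameter fit, reported as ranges, with the mean used where tested repeatedly.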

The nature of data set [2]: High Throughput Dialysis (HTD) Human Plasma Protein Binding Assay. The class given is in vitro ADME. The note with it: pooled human plasma, pH 7.4, equilibrium dialysis, 37° C., read-out: Human PPB (% Unbound). How it is done:
Human plasma protein binding of various compounds of formula (I) were evaluated using the equilibrium dialysis method described herein.
The dialysis membrane strips (HTD % a/b, catalog number 1101, HTDialysis LLC, Gales Ferry, CT, USA) were soaked in ultra-pure water at room temperature for approximately 1 hour. Each membrane strip containing 2 membranes was separated and soaked in 20:80 ethanol/water (v/v) for approximately 20 minutes, after which they were ready for use or were stored in the solution at 2-8° C. for up to a month. Prior to the experiment, the membrane was rinsed three times and soaked for 20 minutes in ultra-pure water.
On the day of experiment, the human plasma (BiolVT, catalog number […], sodium heparin or EDTA-K2 anticoagulant, multiple individuals pooled) was thawed by running under cold tap water and centrifuged at 3220 rpm for 5 minutes to remove any clots. The pH value of the resulting plasma was confirmed to be 7.0-8.0.
The test compounds and warfarin control (Stru Chem, catalog number SC-16139) were dissolved in dimethyl sulfoxide (DMSO) to obtain 10 mM stock solutions. DMSO working solutions were prepared at 400 μM. To prepare the loading matrix, the compound working solutions (5 μL) were added in a 1:200 ratio to blank human plasma (995 μL) and mixed thoroughly.
The time zero (T0) samples to be used for recovery determination were prepared as follows: 50 μL aliquots of loading matrix were transferred in triplicate to the sample collection plate. The samples were immediately matched with opposite blank buffer (basic solution (14.2 g/L Na2HPO4 and 8.77 g/L NaCl in deionized water) titrated with acidic solution (15.6 g/L NaH2PO4·2H2O and 8.77 g/L NaCl in deionized water) to pH 7.4±0.1) to obtain a final volume of 100 μL of 1:1 matrix/dialysis buffer (v/v) in each well. 500 μL stop solution (200 ng/mL tolbutamide and 200 ng/mL labetalol in acetonitrile) were added to these TO samples. They were then stored at 2-8° C. for further processing along with other post-dialysis samples.
To load the dialysis device (96-well equilibrium dialysis plate, model 96b, catalog number 1006. HTDialysis LLC, Gales Ferry, CT, USA), an aliquot of 150 μL of the loading matrix was transferred to the donor side of each dialysis well in triplicate, and 150 μL of the dialysis buffer was loaded to the receiver side of the well. The dialysis plate was placed in a humidified incubator at 37° C. with 5% CO2 on a shaking platform that rotated slowly (about 100 rpm) for 4 hours.
At the end of the dialysis, aliquots of 50 μL of the samples were taken from both the buffer side and the matrix side of the dialysis device. These samples were transferred into new 96-well plates (polypropylene, 2.2 mL/well, catalog number DWP-22-96-SQ-U-C-L. Apricot). Each sample was mixed with an equal volume of opposite blank matrix (buffer or matrix) to reach a final volume of 100 μL of 1:1 matrix/dialysis buffer (v/v) in each well. All samples were further processed by adding 500 μL of stop solution containing internal standards. The mixture was vortexed and centrifuged at 4000 rpm for about 20 minutes. An aliquot of 100 μL of supernatant of all the samples was then removed for LC-MS/MS analysis. Test compound concentrations in matrix and buffer samples were expressed as peak area ratios (PAR) of analyte/internal standard (no standard curve).
The single blank samples were prepared by transferring 50 μL of blank matrix to a 96 well plate (polypropylene. 2.2 mL/well, catalog number DWP-22-96-SQ-U-C-L, Apricot) and adding 50 μL of blank PBS buffer to each well. The blank plasma must match the species of plasma used in the plasma side of the well. Then the matrix-matched samples were further processed by adding 500 μL of stop solution containing internal standards, following the same sample processing method as the dialysis samples. […]

The nature of data set [3]: Thermodynamic Solubility (Ts) Assay in Fasted State Simulated Intestinal Fluid (FaSSIF). Format: physicochemical. The note with it: thermodynamic from solid, FaSSIF pH 6.5, shake flask, 25° C., HPLC-UV. How it is done: The solubilities of various compounds of formula (I) were determined using a thermodynamic solubility assay. The thermodynamic solubility assay employed the shake flask method followed by HPLC-UV analysis. The following stepwise procedure was followed:
Samples of no less than 2.0 mg were weighed into the lower chambers of Whatman mini-uniprep vials (catalog number UN203NPUORG) and 450 μL of FaSSIF media (0.056% (w/v) lecithin, 0.161% (w/v) sodium taurocholate, 0.39% (w/v) monobasic potassium phosphate, 0.77% (w/v) potassium chloride, deionized H2O, pH 6.5) was added into each vial.
After the buffer was added, the filter pistons of the mini-uniprep vials were placed to the position of the liquid level to ensure the full contact of buffer and compound with the filter during the incubation.
The samples were then vortexed for 2 minutes, after which they were incubated at 25° C. with shaking (880 rpm) for 24 hours.
The samples were then centrifuged at 4000 rpm (20° C.) for 10 min.
The miniunipreps were then compressed to prepare filtrates, and the test concentration of the compound in the filtrate was determined using HPLC-UV (Waters XBridge C18, 4.6*100 mm column; mobile phase A: 0.1% TFA in H2O; mobile phase B: 0.1% TFA in acetonitrile). At least 5 UV standard solutions (e.g. amiodarone hydrochloride, carbamazepine, dexamethasone) were injected into the HPLC from low to high concentration subsequently followed by testing of the thermodynamic solubility supernatants in duplicate. The solubilities of the tested compounds are given in μg/mL.

full length MALT1, sequence (Q9UDY8 whole entry): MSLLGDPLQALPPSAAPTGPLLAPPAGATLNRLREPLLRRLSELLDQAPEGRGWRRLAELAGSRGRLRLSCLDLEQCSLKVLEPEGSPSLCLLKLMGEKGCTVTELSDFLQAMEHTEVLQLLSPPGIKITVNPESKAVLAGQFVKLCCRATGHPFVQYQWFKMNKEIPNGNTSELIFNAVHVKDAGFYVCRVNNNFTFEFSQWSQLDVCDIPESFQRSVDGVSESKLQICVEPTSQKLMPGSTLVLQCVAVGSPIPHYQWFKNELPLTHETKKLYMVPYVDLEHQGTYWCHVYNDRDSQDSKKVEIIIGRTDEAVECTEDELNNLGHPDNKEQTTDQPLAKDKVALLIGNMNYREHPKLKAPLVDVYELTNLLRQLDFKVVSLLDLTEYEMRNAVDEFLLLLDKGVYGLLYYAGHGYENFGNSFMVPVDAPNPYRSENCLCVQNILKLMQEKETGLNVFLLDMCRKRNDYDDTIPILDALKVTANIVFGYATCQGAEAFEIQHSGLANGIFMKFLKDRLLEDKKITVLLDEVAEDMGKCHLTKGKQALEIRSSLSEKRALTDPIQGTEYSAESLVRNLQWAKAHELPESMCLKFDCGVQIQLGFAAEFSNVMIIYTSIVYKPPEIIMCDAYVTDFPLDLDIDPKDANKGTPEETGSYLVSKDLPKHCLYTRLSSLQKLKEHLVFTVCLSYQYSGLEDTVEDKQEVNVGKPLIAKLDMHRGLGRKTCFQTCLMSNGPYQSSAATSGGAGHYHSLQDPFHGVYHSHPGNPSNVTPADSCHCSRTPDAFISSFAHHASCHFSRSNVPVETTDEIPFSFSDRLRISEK

For `CO[C@@H](C)c1c(Nc2ccc([C@H](N(C)C(=O)C3CCN(C)CC3)C(F)(F)F)cc2)cnc2nc(Cl)nn12` [Compound 5.1, N—((S)-1-(4-((2-chloro-7-((S)-1-methoxyethyl)-[1,2,4]triazolo[1,5-a]pyrimidin-6-yl)amino)phenyl)-2,2,2-trifluoroethyl)-N,1-dimethylpiperidine-4-carboxamide], the 50% inhibitory concentration (IC50) (at full length MALT1; in data set [1]) was 100 to 1000 nM in each case. The fraction unbound at 4 h, 2 µM in data set [2] was more than 0.2. The molecule further displayed a solubility at 24 h in data set [3] of more than 1750 µg/mL.

In the case of `CO[C@@H](C)c1c(Nc2ccc([C@H](N(C)C(=O)[C@H]3CC[C@H](C(=O)O)CC3)C(F)(F)F)cc2)cnc2nc(Cl)nn12` [Compound 7.1, (1S,4r)-4-(((S)-1-(4-((2-chloro-7-((S)-1-methoxyethyl)-[1,2,4]triazolo[1,5-a]pyrimidin-6-yl)amino)phenyl)-2,2,2-trifluoroethyl)(methyl)carbamoyl)cyclohexane-1-carboxylic acid], the IC50 on full length MALT1 was 100 to 1000 nM; in data set [1], more than 1000 nM. Further, in data set [2], the fraction unbound at 4 h, 2 µM is 0.08 to 0.2. Also, the solubility at 24 h in data set [3] was more than 1750 µg/mL.

On to `CNC(=O)[C@H]1CC[C@H](C(=O)N(C)[C@@H](c2ccc(Nc3cnc4nc(Cl)nn4c3[C@H](C)OC)cc2)C(F)(F)F)CC1` [Compound 8.2, (1r,4S)—N1-((S)-1-(4-((2-chloro-7-((S)-1-methoxyethyl)-[1,2,4]triazolo[1,5-a]pyrimidin-6-yl)amino)phenyl)-2,2,2-trifluoroethyl)-N1,N4-dimethylcyclohexane-1,4-dicarboxamide], for which the IC50 (at full length MALT1; in data set [1]) was 100 to 1000 nM each time. In data set [2], the fraction unbound at 4 h, 2 µM lay in the range of 0.08 to 0.2. This molecule also gave a solubility at 24 h in data set [3] of 250 to 1750 µg/mL (≈ 0.43 to 3.01 mM).

On to `CO[C@@H](C)c1c(Nc2ccc([C@H](N(C)C(=O)[C@H]3CC[C@H](C(=O)N(C)C)CC3)C(F)(F)F)cc2)cnc2nc(Cl)nn12` [Compound 8.3, (1r,4S)—N1-((S)-1-(4-((2-chloro-7-((S)-1-methoxyethyl)-[1,2,4]triazolo[1,5-a]pyrimidin-6-yl)amino)phenyl)-2,2,2-trifluoroethyl)-N1,N4,N4-trimethylcyclohexane-1,4-dicarboxamide], for which the IC50 (on full length MALT1; in data set [1]) was 100 to 1000 nM in each case. For the same molecule, the fraction unbound at 4 h, 2 µM in data set [2] lay within 0.08 to 0.2. In data set [3], this molecule came in with a solubility at 24 h of 250 to 1750 µg/mL (≈ 0.419 to 2.94 mM).

`CO[C@@H](C)c1c(Nc2ccc([C@H](N(C)C(=O)[C@H]3C[C@H](c4nnn[nH]4)C3)C(F)(F)F)cc2)cnc2nc(Cl)nn12` [Compound 9.1, (1r,3S)—N—((S)-1-(4-((2-chloro-7-((S)-1-methoxyethyl)-[1,2,4]triazolo[1,5-a]pyrimidin-6-yl)amino)phenyl)-2,2,2-trifluoroethyl)-N-methyl-3-(1H-tetrazol-5-yl)cyclobutane-1-carboxamide]: the results for the half-inhibitory concentration (IC50) (at full length MALT1; in data set [1]) were less than 100 nM and more than 1000 nM, respectively. Further, in data set [2], the fraction unbound at 4 h, 2 µM is less than 0.08. In data set [3], the solubility at 24 h was more than 1750 µg/mL.

`CO[C@H](C)c1c(Nc2ccc([C@H](N(C)C(=O)C3CCN(C(C)=O)CC3)C(F)(F)F)cc2)cnc2nc(Cl)nn12` [Compound 11.1, 1-acetyl-N—((S)-1-(4-((2-chloro-7-((R)-1-methoxyethyl)-[1,2,4]triazolo[1,5-a]pyrimidin-6-yl)amino)phenyl)-2,2,2-trifluoroethyl)-N-methylpiperidine-4-carboxamide]: the half-maximal inhibitory concentration (IC50) on full length MALT1 was less than 100 nM; in data set [1], 100 to 1000 nM. Moreover, the fraction unbound at 4 h, 2 µM in data set [2] fell in the range of 0.08 to 0.2. The solubility at 24 h in data set [3] is 250 to 1750 µg/mL (≈ 0.44 to 3.08 mM).
